For test [1], the target named is T1, MpaCA (Malassezia pachydermatis, UniProt A0A0M8MPA4).
T1 construct: gene Malapachy_3798
T1 sequence (A0A0M8MPA4 1-242): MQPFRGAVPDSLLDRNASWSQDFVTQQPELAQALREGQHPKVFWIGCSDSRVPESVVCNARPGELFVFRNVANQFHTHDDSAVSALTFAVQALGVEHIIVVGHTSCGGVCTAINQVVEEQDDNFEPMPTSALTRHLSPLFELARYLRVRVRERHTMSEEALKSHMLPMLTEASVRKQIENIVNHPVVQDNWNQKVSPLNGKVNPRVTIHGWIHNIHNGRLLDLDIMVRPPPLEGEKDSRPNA
The experiment in a line: stopped-flow CO2 hydrase assay. Format: biochemical.

In test [2] the test system is T2, M. globosa ATCC MYA 4612.
T2 construct: ATCC MYA 4612
The experiment in a line: microbe, parasite or virus in culture. The settings on record: Malassezia globosa. The procedure, abridged:
(§1)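 Yeast inocula in 10 mM phosphate buffer pH 7, adjusted to 0.5 McFarland (1–5 × 10^6 cells/mL), mixed with compound at 0.01–256 μg/mL. Incubation 24–48 h at 35 °C. Malassezia precultured in modified RPMI and Leeming–Notman agar (M. globosa at 33 °C).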

The test system of test [3] is T3, ATCC M. furfur 14521.
T3 construct: ATCC 14521
The experiment in a line: microbe, parasite or virus in culture. As to conditions: Malassezia furfur. The method, boiled down: as §1

Test [4] concerns C. albicans. The experiment in a line: microbe, parasite or virus in culture. Further details: broth microdilution MIC, M. pachydermatis and Candida, 35 °C. The settings on record: Candida albicans. The method, boiled down:
as §1

Test [5] has as its system T4, C. glabrata DSMZ 11226.
T4 construct: DSMZ 11226 (ATCC 90030)
The experiment in a line: microbe, parasite or virus in culture. The settings on record: Nakaseomyces glabratus, DSMZ11226. Further details: broth microdilution MIC, M. pachydermatis and Candida, 35 °C. The method, boiled down:
as §1

The test system of test [6] is T5, M. pachydermatis DSMZ 6172.
T5 construct: DSMZ 6172 (CDC 16334)
As to the kind of experiment: microbe, parasite or virus in culture. Further details: broth microdilution MIC, M. pachydermatis and Candida, 35 °C. As to conditions: Malassezia pachydermatis, DSMZ6172.

Test [7] has as its target T6, MgCA (Malassezia globosa, UniProt A8Q1N3).
T6 construct: gene MGL_1814
T6 sequence (A8Q1N3 1-241): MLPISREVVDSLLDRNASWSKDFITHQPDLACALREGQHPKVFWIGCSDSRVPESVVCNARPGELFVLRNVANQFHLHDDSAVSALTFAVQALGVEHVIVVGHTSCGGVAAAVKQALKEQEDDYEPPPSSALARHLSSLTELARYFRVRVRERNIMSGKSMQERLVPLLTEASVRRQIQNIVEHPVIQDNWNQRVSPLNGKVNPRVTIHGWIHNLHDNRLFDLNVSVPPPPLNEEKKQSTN
The experiment in a line: biochemical. Further details: stopped-flow CO2 hydration assay, phenol red absorbance at 557 nm, 15 min preincubation, Cheng-Prusoff KI. Here is the method: Enzyme concentrations ranged between 5 and 12 nM. […] The presence of the sulfonamide moiety (i.e., either primary/secondary) within our scaffolds prompted us to investigate whether the compounds listed in this study were endowed with modulation features against the enzymatic metalloenzyme carbonic anhydrases (CAs, EC 4.2.1.1) expressed in Malassezia spp. of interest such as M. pachydermatis (MpaCA), M. globosa (MgCA), and M. restricta (MreCA). […] The obtained activities in Table 3 were all reported as KI values.

This note sets out measurements from PMC9940851, “Seleno Containing Compounds as Potent and Selective Antifungal Agents” (ACS Infectious Diseases, 2022).

By Ki is commonly meant a measure of affinity in units of concentration, obtained from inhibition or displacement. Low readings indicate a stronger hold on the target, high ones a looser hold on the target.

As for `NS(=O)(=O)c1ccc(NC(=O)Nc2ccccc2F)cc1` [14a], the Ki in test [1] came out at 0.845 µM; in test [7], 6.74 µM. Also, the MIC in test [2], in test [3], in test [4], in test [5] and in test [6] was > 256 µg/mL each time.

As to `NS(=O)(=O)c1ccc(NC(=S)Nc2ccccc2F)cc1` [14b], the Ki in test [1] was 0.488 µM; in test [7], 5.49 µM. Further, the MIC in test [2], in test [3], in test [4], in test [5] and in test [6] was > 256 µg/mL each time.
